{"source": "paper PMC12022909", "about": "“A Multicomponent Reaction-Based Platform Opens New Avenues in Aryl Hydrocarbon Receptor Modulation” (ACS Central Science, 2025)", "key": {"Jurkat cells": {"test_system": "Jurkat cells", "experiment": "Cell viability (Annexin V-APC, flow cytometry) in Jurkat cells", "assay_type": "cell-based", "details": "24 h", "method": "(§1) A phosphatidylserine exposure was used to determine cell viability. Cells were washed with PBS, pelleted, and then incubated with annexin binding buffer containing Annexin V-APC (Life Technologies) for 15 min in the dark. Then, samples were analyzed by flow cytometry using FACSCanto II and FACSDiva (BD Biosciences, Franklin Lakes, NJ, USA). Data represents the percentage of non - apoptotic cells (Ann -APC-).\n(§2) The cytotoxicity of a selection of the synthesized compounds was assessed after 24 hours of treatment in two human cell lines, Jurkat and HEK293T, coming from either tumoral T-cell lymphocytes or non-tumoral embryonic kidney fibroblasts, respectively. […]\n(§3) the pro-apoptotic activity was not significant below 10 µM for most compounds in both cell lines, except for 5i, 5k and 5l in both cell lines, as well as 9a in Jurkat and 5e HEK293T cells (Figure S35A-B).\n(§4) Moreover, the cytotoxicity of compounds 4d, 5b, 5h, 8, 10, and 12d at a higher concentration (100 µM) was assessed in both cell lines, Jurkat and HEK293T. The cytotoxicity of compounds 5b, 5h, and 12d could not be properly tested as the compounds were not soluble […]\n(§5) effects observed for compound 4d in Jurkat cells and compound 8 in HEK293T cells (Figure S35C).\n(§6) Figure S35. A) Jurkat and B) HEK293T cells were treated with 1 and 10 µM doses of the corresponding compound for 24 hours. Indicated doses of fluorizoline were used as a positive control of cell death. C) Jurkat and HEK293T cells were treated with 100 µM of the corresponding compound for 24 hours. Viability was measured by flow cytometry, and it is expressed as the mean ± SEM (n = 3) of the percentage of non -apoptotic cells (Ann-APC-). * p < 0.05, ** p < 0.01 *** p < […]\n(§7) (1 picture or pasted object on this page, not shown here)"}, "[1]": {"experiment": "Solubility in the growing media during cytotoxicity testing", "assay_type": "physicochemical", "details": "concentration of 100 µM", "method": "as §1, §2, §3, §4, §5, §6, §7"}, "HaCaT cells": {"test_system": "HaCaT cells", "experiment": "UVA phototoxicity, caspase 3 activity in HaCaT cells", "assay_type": "cell-based, human", "details": "for UVA radiation-induced caspase activity (phototoxicity): HaCaT, 1 h, UVA 5 J/cm2", "method": "Irradiation with UVA and caspase 3 activity measurement […]\nculture media was exchanged with PBS and the cells were sham or UVA (5 J/cm2) irradiated using the BS-02 irradiation chamber (Opsytec Dr. Gröbel, Ettlingen Germany). Media was added to the cells and after 4 h incubation, caspase 3 activity was measured as described previously.[33] Protein quantification was done with the Bio-Rad DC protein assay kit (Bio-Rad Laboratories, Hercules, CA) according to the manufacturer protocol.\nWe compared the phototoxic potential of five of our test compounds (8, 10, 5b, 5h, 4b) as well as the FDA-approved AhR activator […]\ninduced caspase activity at a concentration of 100 nM (Figure S36A). At a 10-fold higher concentration (1 µM) two of the test compounds […]\nFigure S36. […] For statistical analysis a two-way ANOVA (Tukey post-hoc) was performed and data are shown as mean ± SEM. (*, p ≤ 0.05). […]"}, "HEK293T cells": {"test_system": "HEK293T cells", "experiment": "Cell viability (Annexin V-APC, flow cytometry) in HEK293T cells", "assay_type": "cell-based", "details": "24 h", "method": "as §1, §2, §3, §4, §5, §6, §7"}}}
{"smiles": "CCOc1c2[nH]c3ccccc3c2cc2[nH]c3ccccc3c12", "note": "[compound 8, 6-ethoxy-ICZ]", "values": [{"measurement": "cytotoxicity / pro-apoptotic activity at 100 µM", "setting": "Jurkat cells", "value": "minimal pro-apoptotic activity"}, {"measurement": "solubility in the growing media", "setting": "[1]", "value": "slight turbidity"}, {"measurement": "overlap between effective and toxic concentrations", "setting": "HaCaT cells", "value": "minimal overlap"}, {"measurement": "UVA radiation-induced caspase activity (phototoxicity)", "setting": "HaCaT cells; 100 nM", "value": "neither tapinarof nor our 6-ICZ compounds enhanced"}, {"measurement": "UVA radiation-induced caspase activity (phototoxicity)", "setting": "HaCaT cells; 1 µM", "value": "exhibited similar effects to FICZ"}, {"measurement": "cytotoxicity / pro-apoptotic activity at 100 µM", "setting": "HEK293T cells", "value": "slight cytotoxic effects"}]}
